According to ChEMBL document CHEMBL4418488, “Compounds and methods of treating ocular disorders” (2017):
Activity calls are given as the source filed them. The calls are words filed in the database; no cut-off is given here.

Columns and labels:
[1] = system: Mus musculus; assay: Protective effect against intense light-induced retinal degeneration in 4 weeks old Abca4(-/-)/Rdh8 (-/-) mouse at 0.1 mg dosed via gavage under dark for 24 hrs before exposure to 10000 lux bright light for 1 hr followed by exposure to dark for 3 days by OCT analysis; type: functional, organism-based
[2] = Toxicity in 4 weeks old Abca4(-/-)/Rdh8 (-/-) mouse model of intense light-induced retinal degeneration at 1 mg dosed via gavage under dark for 24 hrs before exposure to 10000 lux bright light for 1 hr by SDOCT and ERG analysis; type: organism-based; conditions: in vivo, po
[3] = system: Mus musculus; assay: Protective effect against intense light-induced retinal degeneration in 4 weeks old Abca4(-/-)/Rdh8 (-/-) mouse at 0.5 mg dosed via gavage under dark for 24 hrs before exposure to 10000 lux bright light for 1 hr followed by exposure to dark for 3 days by ERG analysis; type: functional, organism-based
[4] = system: Mus musculus; assay: Protective effect against intense light-induced retinal degeneration in 4 weeks old Abca4(-/-)/Rdh8 (-/-) mouse at 0.1 mg dosed via gavage under dark for 24 hrs before exposure to 10000 lux bright light for 1 hr followed by exposure to dark for 3 days by ERG analysis; type: functional, organism-based
[5] = system: Mus musculus; assay: Protective effect against intense light-induced retinal degeneration in 4 weeks old Abca4(-/-)/Rdh8 (-/-) mouse assessed as effect on thickness of outer nuclear layer at 1 mg dosed via gavage under dark for 24 hrs before exposure to 10000 lux bright light for 1 hr by SDOCT and ERG analysis; type: functional, organism-based
[6] = system: Mus musculus; assay: Protective effect against intense light-induced retinal degeneration in 4 weeks old Abca4(-/-)/Rdh8 (-/-) mouse assessed as inhibition of rate of visual chromophore recovery by measuring 11-cis- retinal level in eye at 0.1 mg dosed via gavage under dark for 24 hrs before exposure to 10000 lux bright light for 1 hr by HPLC analysis relative to control; type: functional
[7] = system: Mus musculus; assay: Protective effect against intense light-induced retinal degeneration in 4 weeks old Abca4(-/-)/Rdh8 (-/-) mouse at 0.2 mg dosed via gavage under dark for 24 hrs before exposure to 10000 lux bright light for 1 hr followed by exposure to dark for 3 days by ERG analysis; type: functional, organism-based
[8] = system: Mus musculus; assay: Protective effect against intense light-induced retinal degeneration in wild type mouse assessed as rate of visual chromophore recovery by measuring 11-cis- retinal level in eye at 0.2 mg pretreated with compound followed by exposure to light illumination 7 days after compound dosing (reference value: 85 +/- 5%) by HPLC analysis; type: functional, organism-based
[9] = system: Mus musculus; assay: Protective effect against intense light-induced retinal degeneration in 4 weeks old Abca4(-/-)/Rdh8 (-/-) mouse assessed as 11-cis retinal levels at 1 mg dosed via gavage under dark for 24 hrs before exposure to 10000 lux bright light for 1 hr by HPLC analysis; type: functional
[10] = Drug metabolism in 4 weeks old Abca4(-/-)/Rdh8 (-/-) mouse model of intense light-induced retinal degeneration assessed as accumulation of intense amide peaks in liver at 1 mg dosed via gavage under dark for 24 hrs before exposure to 10000 lux bright light for 1 hr […]; type: ADME, organism-based; conditions: in vivo, po

Structure (SMILES)	Activity [2]	Activity [5]	further results
CC1=C(/C=C/C(C)=C/C=C/C(C)=C/CN)C(C)(C)CCC1	Non-Toxic	Active	Activity [1]: inactive; Activity [3]: Active; Activity [4]: inactive; inhibition (INH) [6]: 40%; Activity [7]: Active; Activity [8]: inactive
CC1=C(/C=C/C=C/C=C/C=C/CN)C(C)(C)CCC1	Non-Toxic	Active	
CC(/C=C/C=C(/c1ccc2ccccc2c1)C(C)(C)C)=C\CN	Toxic	Active	Activity [9]: 50%; Drug metabolism [10]: Metabolite_Detected
CC(/C=C/C=C(/C=C/c1ccccc1)C(C)(C)C)=C\CN	Toxic	Active	Drug metabolism [10]: Metabolite_Detected
CC1=C(/C=C/C(=C/C=C/C(C)=C/CN)C(C)(C)C)C(C)(C)CCC1	Non-Toxic	inactive	
COc1ccc(C(=C\C=C\C(C)=C\CN)/C=C/C2=CCCCC2)cc1	Non-Toxic	inactive	
CC(C)(C)C(=C\C=C\CN)/C=C/C1=CCCCC1	Toxic	inactive	
COc1ccc(C(=C\C=C\C(C)=C\CN)/C=C/c2ccc(O)cc2)cc1	Non-Toxic	inactive	
CC(/C=C/C1=CCCCC1)=C\C=C\C(C)=C\CN	Non-Toxic	inactive	
CC(/C=C/C=C(/C=C/C1=CCCCC1)C(C)(C)C)=C\CN	Toxic	Active	Activity [9]: 50%; Drug metabolism [10]: Metabolite_Detected
CC1=C(/C=C/C(=C/C=C/C(C)=C/CN)C(C)(C)C)CCCC1	Non-Toxic	inactive	
CC(/C=C/C=C(/C=C/c1ccc(C(F)(F)F)cc1)c1ccccc1)=C\CN	Toxic	inactive	
